The values below come from ChEMBL document CHEMBL4507262, “Data for DCP probe A-1596586” (2021).

The target of experiment [1] is Serine/threonine-protein kinase MRCK beta (Homo sapiens) (UniProt Q9Y5S2). As to conditions: Compound concentration 1000.0 nM.
Experiment [2] addresses 5-hydroxytryptamine receptor 1B (Homo sapiens) (UniProt P28222). The experiment is described as follows: 5-HT1B(h) Eurofins-Cerep binding assay. Details: ligand concentration 1 nM. As to conditions: filed as antagonist, Compound concentration 10.0 uM.
Experiment [3] concerns the target T1, Muscarinic acetylcholine receptor M2 (Homo sapiens) (UniProt P08172).
T1 sequence (whole entry): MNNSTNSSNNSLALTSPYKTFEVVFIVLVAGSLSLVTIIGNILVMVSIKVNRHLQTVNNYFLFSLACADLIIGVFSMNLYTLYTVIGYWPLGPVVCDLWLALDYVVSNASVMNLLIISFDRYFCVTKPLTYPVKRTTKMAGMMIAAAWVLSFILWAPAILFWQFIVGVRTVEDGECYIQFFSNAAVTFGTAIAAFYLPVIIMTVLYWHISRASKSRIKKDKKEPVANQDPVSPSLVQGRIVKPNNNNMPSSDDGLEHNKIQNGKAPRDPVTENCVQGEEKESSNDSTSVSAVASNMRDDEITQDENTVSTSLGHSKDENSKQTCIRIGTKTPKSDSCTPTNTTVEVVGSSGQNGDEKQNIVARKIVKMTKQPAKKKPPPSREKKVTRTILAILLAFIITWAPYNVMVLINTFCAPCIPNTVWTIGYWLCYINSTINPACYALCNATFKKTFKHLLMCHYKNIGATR
To be noted: Compound concentration 10.0 uM.

For experiment [4], the target named is Cholecystokinin receptor type A (Homo sapiens) (UniProt P32238). The experiment in a line: CCK1 (CCKA) (h) Eurofins-Cerep binding assay. As to conditions: filed as agonist, Compound concentration 10.0 uM.
The target of experiment [5] is Calcium/calmodulin-dependent protein kinase type IV (Homo sapiens) (UniProt Q16566). As to conditions: Compound concentration 1000.0 nM.
Experiment [6] concerns the target Cyclin-dependent kinase 8 (Homo sapiens) (UniProt P49336). As to conditions: Compound concentration 1000.0 nM.
The target of experiment [7] is 5-hydroxytryptamine receptor 6 (Homo sapiens) (UniProt P50406). To be noted: Compound concentration 10.0 uM.
Experiment [8] has as its target Protein-tyrosine kinase 6 (Homo sapiens) (UniProt Q13882). To be noted: Compound concentration 1000.0 nM.
For experiment [9], the target named is 5-hydroxytryptamine receptor 5A (Homo sapiens) (UniProt P47898). As to conditions: Compound concentration 10.0 uM.
For experiment [10], the target named is Mitogen-activated protein kinase kinase kinase 3 (Homo sapiens) (UniProt Q99759). To be noted: Compound concentration 1000.0 nM.
The target in experiment [11] is Interleukin-1 receptor-associated kinase 4 (Homo sapiens) (UniProt Q9NWZ3). To be noted: Compound concentration 1000.0 nM.
The test system of experiment [12] is Epidermal growth factor receptor (Homo sapiens), P00533 [UNDEFINED MUTATION]. To be noted: Compound concentration 1000.0 nM.
Experiment [13] addresses T2, 5-hydroxytryptamine receptor 2C (Homo sapiens) (UniProt P28335).
T2 sequence (whole entry): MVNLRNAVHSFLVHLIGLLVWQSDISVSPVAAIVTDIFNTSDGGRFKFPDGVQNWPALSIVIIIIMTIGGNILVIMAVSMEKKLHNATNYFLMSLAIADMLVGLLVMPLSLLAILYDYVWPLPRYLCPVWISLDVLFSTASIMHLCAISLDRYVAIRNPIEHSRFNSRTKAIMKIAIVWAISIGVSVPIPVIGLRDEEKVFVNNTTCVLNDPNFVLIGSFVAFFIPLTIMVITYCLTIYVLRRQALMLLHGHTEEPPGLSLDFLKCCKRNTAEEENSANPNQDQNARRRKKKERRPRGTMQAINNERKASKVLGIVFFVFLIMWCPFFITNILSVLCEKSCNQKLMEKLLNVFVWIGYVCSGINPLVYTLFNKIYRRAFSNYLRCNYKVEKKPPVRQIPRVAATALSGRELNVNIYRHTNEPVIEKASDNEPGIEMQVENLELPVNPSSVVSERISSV
To be noted: Compound concentration 10.0 uM.

Experiment [14] concerns the target T3, Alpha-1B adrenergic receptor (Homo sapiens) (UniProt P35368).
T3 sequence (whole entry): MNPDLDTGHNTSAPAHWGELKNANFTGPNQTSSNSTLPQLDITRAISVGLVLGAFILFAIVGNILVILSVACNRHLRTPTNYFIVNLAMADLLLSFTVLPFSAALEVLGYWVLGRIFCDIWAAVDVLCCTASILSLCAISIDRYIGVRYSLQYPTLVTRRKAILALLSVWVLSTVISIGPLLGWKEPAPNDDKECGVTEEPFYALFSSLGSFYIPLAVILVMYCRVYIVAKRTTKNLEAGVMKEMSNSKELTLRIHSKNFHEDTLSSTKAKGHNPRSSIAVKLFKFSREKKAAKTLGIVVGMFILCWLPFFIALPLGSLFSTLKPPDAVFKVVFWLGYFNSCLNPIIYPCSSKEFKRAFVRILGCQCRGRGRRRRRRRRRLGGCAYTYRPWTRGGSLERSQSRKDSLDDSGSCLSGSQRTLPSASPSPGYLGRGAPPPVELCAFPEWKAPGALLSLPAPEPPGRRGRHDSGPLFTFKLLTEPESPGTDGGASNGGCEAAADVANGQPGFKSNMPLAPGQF
To be noted: Compound concentration 10.0 uM.

Experiment [15] has as its target Serine/threonine-protein kinase Nek3 (Homo sapiens) (UniProt P51956). As to conditions: Compound concentration 1000.0 nM.
Experiment [16] addresses Tyrosine-protein kinase Mer (Homo sapiens) (UniProt Q12866). To be noted: Compound concentration 1000.0 nM.
The target of experiment [17] is Sodium-dependent dopamine transporter (Homo sapiens) (UniProt Q01959). As to conditions: Compound concentration 10.0 uM.
In experiment [18] the test system is Phosphatidylinositol 4,5-bisphosphate 3-kinase catalytic subunit alpha isoform (Homo sapiens), P42336 [E545A]. As to conditions: Compound concentration 1000.0 nM.
Experiment [19] addresses Cyclin-dependent kinase-like 5 (Homo sapiens) (UniProt O76039). As to conditions: Compound concentration 1000.0 nM.
Experiment [20] addresses Delta-type opioid receptor (Homo sapiens) (UniProt P41143). To be noted: Compound concentration 10.0 uM.
The target in experiment [21] is Mitogen-activated protein kinase kinase kinase 11 (Homo sapiens) (UniProt Q16584). As to conditions: Compound concentration 1000.0 nM.
Experiment [22] has as its target Histamine H3 receptor (Homo sapiens) (UniProt Q9Y5N1). To be noted: Compound concentration 10.0 uM.
The target in experiment [23] is 5-hydroxytryptamine receptor 1E (Homo sapiens) (UniProt P28566). To be noted: Compound concentration 10.0 uM.
Experiment [24] has as its target Sodium-dependent serotonin transporter (Homo sapiens) (UniProt P31645). To be noted: Compound concentration 10.0 uM.

Chain of 5-hydroxytryptamine receptor 1B (Homo sapiens) (P28222 whole entry): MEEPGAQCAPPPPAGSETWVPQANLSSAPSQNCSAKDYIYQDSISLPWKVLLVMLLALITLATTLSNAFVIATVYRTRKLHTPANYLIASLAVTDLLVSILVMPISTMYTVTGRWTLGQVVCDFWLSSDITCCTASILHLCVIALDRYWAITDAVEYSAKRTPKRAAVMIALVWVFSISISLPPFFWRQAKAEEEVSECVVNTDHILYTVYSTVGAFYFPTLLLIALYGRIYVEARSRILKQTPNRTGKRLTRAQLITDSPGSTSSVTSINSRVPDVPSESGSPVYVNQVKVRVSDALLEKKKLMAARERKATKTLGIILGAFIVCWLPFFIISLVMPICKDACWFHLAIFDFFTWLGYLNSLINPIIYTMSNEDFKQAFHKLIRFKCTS
Chain of Serine/threonine-protein kinase Nek3 (Homo sapiens) (P51956 whole entry): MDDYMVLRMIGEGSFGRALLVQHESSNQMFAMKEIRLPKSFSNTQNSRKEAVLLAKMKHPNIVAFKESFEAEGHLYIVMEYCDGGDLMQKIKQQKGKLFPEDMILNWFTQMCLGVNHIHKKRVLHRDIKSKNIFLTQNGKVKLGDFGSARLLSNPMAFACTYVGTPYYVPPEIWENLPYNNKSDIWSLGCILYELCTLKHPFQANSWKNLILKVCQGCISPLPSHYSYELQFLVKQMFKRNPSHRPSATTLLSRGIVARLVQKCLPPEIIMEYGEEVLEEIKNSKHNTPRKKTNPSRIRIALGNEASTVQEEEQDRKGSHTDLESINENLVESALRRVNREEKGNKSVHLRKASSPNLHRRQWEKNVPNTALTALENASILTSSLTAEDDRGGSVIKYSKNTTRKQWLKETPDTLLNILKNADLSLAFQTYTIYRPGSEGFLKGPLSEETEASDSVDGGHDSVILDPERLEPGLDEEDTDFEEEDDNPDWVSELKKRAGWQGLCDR
Chain of Serine/threonine-protein kinase MRCK beta (Homo sapiens) (Q9Y5S2 whole entry): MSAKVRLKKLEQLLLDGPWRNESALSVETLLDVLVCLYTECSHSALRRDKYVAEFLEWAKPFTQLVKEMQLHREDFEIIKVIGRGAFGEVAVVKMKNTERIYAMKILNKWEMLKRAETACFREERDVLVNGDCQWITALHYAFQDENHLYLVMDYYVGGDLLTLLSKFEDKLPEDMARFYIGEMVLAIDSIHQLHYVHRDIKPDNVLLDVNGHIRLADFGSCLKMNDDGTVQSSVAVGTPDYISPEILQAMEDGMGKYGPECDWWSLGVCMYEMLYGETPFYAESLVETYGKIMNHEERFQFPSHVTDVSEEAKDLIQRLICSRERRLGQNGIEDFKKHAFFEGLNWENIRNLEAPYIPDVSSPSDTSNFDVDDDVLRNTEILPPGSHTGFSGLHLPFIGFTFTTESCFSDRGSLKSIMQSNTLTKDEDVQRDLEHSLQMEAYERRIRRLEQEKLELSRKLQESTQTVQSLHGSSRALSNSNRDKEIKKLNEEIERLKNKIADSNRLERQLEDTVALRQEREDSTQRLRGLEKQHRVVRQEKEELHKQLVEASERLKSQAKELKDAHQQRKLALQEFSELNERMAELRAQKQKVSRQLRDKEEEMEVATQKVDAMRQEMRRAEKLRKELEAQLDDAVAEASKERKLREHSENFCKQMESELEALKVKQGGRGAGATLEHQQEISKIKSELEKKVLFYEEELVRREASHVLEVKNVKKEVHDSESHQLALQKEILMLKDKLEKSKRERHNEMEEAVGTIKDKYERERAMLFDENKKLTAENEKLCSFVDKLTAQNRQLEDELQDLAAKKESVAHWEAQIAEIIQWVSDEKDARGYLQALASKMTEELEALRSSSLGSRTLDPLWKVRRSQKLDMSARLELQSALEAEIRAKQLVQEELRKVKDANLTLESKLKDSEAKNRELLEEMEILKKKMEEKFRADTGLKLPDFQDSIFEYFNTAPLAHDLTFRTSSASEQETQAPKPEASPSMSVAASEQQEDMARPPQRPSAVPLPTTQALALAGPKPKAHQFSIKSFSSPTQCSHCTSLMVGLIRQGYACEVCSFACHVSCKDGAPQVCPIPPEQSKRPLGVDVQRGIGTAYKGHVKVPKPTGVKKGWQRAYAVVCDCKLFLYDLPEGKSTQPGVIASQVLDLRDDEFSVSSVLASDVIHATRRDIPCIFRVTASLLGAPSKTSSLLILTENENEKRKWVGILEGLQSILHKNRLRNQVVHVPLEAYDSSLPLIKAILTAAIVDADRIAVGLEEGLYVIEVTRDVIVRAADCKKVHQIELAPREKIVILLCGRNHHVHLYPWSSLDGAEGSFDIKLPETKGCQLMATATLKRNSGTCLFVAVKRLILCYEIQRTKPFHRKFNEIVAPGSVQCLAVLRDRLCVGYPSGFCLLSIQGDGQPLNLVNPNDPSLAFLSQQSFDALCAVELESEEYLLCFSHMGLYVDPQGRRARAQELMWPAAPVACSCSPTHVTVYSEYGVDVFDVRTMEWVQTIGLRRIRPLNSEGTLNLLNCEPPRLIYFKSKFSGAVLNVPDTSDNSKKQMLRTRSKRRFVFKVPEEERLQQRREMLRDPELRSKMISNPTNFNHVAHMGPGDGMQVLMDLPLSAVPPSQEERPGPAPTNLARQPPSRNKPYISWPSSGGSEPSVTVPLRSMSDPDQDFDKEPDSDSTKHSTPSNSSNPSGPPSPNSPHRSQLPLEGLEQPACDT
Chain of Cholecystokinin receptor type A (Homo sapiens) (P32238 whole entry): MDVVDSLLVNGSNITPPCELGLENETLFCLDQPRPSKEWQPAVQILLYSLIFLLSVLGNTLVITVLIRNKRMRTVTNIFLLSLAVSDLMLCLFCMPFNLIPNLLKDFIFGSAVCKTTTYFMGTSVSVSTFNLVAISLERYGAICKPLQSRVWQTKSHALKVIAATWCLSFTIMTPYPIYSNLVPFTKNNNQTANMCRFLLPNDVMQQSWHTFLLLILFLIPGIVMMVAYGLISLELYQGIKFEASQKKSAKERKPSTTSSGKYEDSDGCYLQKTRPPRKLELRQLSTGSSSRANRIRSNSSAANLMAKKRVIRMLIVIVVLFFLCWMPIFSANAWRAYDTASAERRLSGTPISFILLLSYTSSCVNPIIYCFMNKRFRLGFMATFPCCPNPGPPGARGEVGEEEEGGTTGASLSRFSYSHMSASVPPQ
Chain of Cyclin-dependent kinase 8 (Homo sapiens) (P49336 whole entry): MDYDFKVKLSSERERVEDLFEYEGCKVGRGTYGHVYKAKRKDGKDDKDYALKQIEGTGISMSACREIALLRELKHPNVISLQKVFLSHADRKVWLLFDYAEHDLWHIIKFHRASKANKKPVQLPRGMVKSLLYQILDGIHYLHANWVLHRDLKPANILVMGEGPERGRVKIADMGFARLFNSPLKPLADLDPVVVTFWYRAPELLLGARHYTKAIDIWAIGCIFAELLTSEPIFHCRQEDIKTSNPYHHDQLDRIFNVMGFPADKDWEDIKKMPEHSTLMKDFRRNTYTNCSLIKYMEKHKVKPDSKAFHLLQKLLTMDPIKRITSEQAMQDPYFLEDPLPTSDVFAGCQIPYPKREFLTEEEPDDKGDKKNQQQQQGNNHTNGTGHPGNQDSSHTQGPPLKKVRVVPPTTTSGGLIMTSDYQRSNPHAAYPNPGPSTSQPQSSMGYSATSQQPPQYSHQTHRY
Chain of Phosphatidylinositol 4,5-bisphosphate 3-kinase catalytic subunit alpha isoform (Homo sapiens), P42336 [E545A] (P42336 whole entry E545A, canonical isoform): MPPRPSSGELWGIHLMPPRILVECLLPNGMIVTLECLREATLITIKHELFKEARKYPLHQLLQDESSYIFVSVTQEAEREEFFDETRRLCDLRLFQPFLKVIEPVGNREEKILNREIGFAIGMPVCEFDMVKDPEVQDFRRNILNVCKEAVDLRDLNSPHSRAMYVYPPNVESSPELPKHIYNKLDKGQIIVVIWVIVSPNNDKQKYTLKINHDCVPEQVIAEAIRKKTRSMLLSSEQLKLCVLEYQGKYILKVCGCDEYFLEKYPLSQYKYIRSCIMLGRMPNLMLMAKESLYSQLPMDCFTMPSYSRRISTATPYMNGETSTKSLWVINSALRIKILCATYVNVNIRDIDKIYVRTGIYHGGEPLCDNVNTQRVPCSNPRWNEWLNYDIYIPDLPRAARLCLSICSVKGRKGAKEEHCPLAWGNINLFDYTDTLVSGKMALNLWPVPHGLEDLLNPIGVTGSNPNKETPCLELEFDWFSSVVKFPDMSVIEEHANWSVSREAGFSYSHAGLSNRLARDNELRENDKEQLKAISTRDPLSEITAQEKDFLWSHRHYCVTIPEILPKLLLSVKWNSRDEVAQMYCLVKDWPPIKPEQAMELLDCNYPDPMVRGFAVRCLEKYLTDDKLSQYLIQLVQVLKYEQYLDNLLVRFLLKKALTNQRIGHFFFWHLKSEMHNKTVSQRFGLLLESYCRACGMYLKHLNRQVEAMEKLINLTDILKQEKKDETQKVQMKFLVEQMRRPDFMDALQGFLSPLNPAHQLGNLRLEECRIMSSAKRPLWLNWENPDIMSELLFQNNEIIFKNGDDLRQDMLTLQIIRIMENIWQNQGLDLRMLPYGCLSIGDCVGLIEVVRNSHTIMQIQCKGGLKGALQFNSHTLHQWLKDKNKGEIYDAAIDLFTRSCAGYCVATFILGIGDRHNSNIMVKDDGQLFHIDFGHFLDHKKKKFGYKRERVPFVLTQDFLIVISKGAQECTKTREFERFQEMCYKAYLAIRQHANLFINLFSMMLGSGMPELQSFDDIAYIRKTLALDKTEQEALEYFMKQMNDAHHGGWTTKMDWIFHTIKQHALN
Chain of Calcium/calmodulin-dependent protein kinase type IV (Homo sapiens) (Q16566 whole entry): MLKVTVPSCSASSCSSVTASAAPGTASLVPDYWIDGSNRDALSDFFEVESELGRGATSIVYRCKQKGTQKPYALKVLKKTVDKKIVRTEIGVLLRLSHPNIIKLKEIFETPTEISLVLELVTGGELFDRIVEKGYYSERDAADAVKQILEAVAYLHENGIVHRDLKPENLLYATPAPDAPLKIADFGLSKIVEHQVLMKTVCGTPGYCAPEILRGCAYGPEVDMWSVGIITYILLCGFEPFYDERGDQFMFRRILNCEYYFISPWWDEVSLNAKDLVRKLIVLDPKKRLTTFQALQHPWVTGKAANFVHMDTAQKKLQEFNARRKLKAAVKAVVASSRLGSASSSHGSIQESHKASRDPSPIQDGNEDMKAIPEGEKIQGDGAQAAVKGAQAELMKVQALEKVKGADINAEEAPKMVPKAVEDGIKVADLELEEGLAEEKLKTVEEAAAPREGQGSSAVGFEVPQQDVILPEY

`COc1ccc2c(c1)O[C@@H](c1ccc(OC)c(OC)c1)C[C@H]2NC(=O)C1(c2ccc3c(c2)OC(F)(F)O3)CC1` [A-1596586]: the residual activity was 100% in experiment [1]; 89% in [5]; 100% in experiment [6]; 100% in [8]; 84% in experiment [10]; 82% in [11]. For the same molecule, the residual activity was 100% in [12]; 76% in [15]; 95% in experiment [16]; 94% in [18]; 85% in experiment [19]; 100% in experiment [21]. For the same molecule, the % Inhibition of Control Specific Binding (Mean n=2) in experiment [2] is 2.8%; in experiment [4], -51.6%. Moreover, the inhibition was -9.38% in [3]; -7.58% in experiment [7]; -7.95% in experiment [9]; -2.28% in experiment [13]; 49% in [14]; 6.33% in experiment [17]. In addition, in [20], the inhibition is -7.29%.
As for `COc1ccc2c(c1)O[C@H](c1ccc(OC)c(OC)c1)C[C@@H]2NC(=O)C1(c2ccc3c(c2)OC(F)(F)O3)CC1` [A-1596584], the residual activity in experiment [1] was 100%; in experiment [5], 100%; in [6] it was 100%; in experiment [8], 100%; in [10], 87%; in experiment [11], 100%. For the same molecule, the residual activity in [12] was 100%; in experiment [15], 90%; in experiment [16], 98%; in experiment [18] it was 100%; in experiment [19], 100%; in [21], 100%. For the same molecule, the % Inhibition of Control Specific Binding (Mean n=2) is -8.6% in experiment [2] and -38.6% in experiment [4]. The inhibition was 10.4% in experiment [22]; 1.27% in [23]; 5.75% in experiment [24]; 5.97% in experiment [14]; -9.84% in [20].
